Results on 2 molecules are retold here after article PMC10976477 (RSC Advances, 2024).

In data set [1] the target is T1, human MAO-B (Homo sapiens, UniProt P27338).
T1 sequence (P27338 1-520): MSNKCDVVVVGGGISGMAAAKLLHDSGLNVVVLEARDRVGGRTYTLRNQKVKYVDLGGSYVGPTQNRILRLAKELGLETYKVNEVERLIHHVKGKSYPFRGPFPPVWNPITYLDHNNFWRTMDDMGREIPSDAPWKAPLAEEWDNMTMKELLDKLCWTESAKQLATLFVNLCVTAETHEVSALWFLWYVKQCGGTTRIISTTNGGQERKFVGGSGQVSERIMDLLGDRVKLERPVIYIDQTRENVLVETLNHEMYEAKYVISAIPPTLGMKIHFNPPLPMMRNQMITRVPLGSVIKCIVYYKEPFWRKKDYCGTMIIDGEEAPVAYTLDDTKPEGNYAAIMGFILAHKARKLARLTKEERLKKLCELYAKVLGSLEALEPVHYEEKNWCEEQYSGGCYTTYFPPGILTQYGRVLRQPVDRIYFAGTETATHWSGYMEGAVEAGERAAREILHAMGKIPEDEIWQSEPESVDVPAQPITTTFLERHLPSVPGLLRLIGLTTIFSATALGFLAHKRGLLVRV
As to the kind of experiment: MAO-B inhibition assay. Conditions: for SI = IC50 of MAO-A/IC50 of MAO-B: selectivity index. The class given is biochemical.

Data set [2] addresses T2, eqBChE (Equus caballus, UniProt P81908). As to the kind of experiment: Cholinesterase inhibition, Ellman's assay. Conditions: read-out: IC50 (μM) ± SEM eqBChE; mean ± SEM; n = 3.
Data set [3] can be described thus: ABTS radical cation scavenging assay. The note with it: read-out: IC50 (μM) ± SEM ABTS.
Data set [4] addresses T3, human MAO-A (Homo sapiens, UniProt P21397).
T3 sequence (P21397 1-527): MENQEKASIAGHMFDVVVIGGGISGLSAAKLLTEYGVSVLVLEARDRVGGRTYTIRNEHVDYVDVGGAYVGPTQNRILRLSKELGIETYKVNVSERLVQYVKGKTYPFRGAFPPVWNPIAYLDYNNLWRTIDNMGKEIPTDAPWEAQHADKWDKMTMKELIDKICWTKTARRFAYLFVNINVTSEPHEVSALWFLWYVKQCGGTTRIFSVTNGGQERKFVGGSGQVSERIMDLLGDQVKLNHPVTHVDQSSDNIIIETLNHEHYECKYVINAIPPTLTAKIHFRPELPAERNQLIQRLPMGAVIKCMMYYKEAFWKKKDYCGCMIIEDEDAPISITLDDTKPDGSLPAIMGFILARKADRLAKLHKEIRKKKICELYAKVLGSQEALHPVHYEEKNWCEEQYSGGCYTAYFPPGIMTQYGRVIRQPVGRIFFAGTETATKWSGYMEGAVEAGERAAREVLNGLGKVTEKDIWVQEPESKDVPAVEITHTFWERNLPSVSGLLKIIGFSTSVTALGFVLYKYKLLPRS
In words: MAO-A inhibition assay. The class given is biochemical.

Data set [5] can be described thus: DPPH radical scavenging assay. Conditions: read-out: IC50 (μM) ± SEM DPPH.
Data set [6] has as its target eeAChE (Electrophorus electricus, UniProt O42275). As to the kind of experiment: Cholinesterase inhibition, Ellman's assay. The class given is biochemical, electric eel. The note with it: for SI = IC50 of BChE/IC50 of AChE: selectivity index.
Data set [7] can be described thus: Ferric ion reducing antioxidant power. The note with it: μM equivalent to the standard antioxidant ascorbic acid.
Data set [8] deals with SOD. As to the kind of experiment: In vivo SOD level in brain of mice. The note with it: 5 mg kg^−1.
For data set [9], the target named is T2, eqBChE. In words: biochemical.
The nature of data set [10]: In vivo antioxidant potential in mice. The note with it: 5 mg kg^−1, SOD, CAT, GSH.
The test system of data set [11] is SH-SY5Y cells. As to the kind of experiment: SH-SY5Y neuroblastoma cell toxicity. Conditions: 10–100 μM, 48 h incubation, MTT. The class given is cell-based, human.
In data set [12] the target is T4, COX-2 (Homo sapiens, UniProt P35354).
T4 sequence (P35354 18-604): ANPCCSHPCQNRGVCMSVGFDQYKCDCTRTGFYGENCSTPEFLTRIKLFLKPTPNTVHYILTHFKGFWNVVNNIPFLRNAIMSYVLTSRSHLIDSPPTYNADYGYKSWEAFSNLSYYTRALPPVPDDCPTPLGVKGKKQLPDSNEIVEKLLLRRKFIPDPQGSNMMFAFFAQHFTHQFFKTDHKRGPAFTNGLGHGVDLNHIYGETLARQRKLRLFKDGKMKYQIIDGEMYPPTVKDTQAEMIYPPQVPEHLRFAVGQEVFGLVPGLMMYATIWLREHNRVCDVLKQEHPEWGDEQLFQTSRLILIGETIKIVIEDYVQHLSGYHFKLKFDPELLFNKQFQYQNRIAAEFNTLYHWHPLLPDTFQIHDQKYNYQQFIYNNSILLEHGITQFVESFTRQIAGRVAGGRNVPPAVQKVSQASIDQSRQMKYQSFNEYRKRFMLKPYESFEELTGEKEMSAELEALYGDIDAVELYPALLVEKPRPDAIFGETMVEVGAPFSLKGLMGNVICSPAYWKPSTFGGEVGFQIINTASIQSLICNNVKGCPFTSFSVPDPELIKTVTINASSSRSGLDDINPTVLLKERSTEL
In words: biochemical.

Data set [13] concerns the target Aβ1–42 peptide (Homo sapiens, UniProt P05067). As to the kind of experiment: ThT fluorescence assay for self-mediated Aβ1–42 aggregation. It is filed as biochemical.
In data set [14] the test system is MDA. In words: In vivo MDA level in brain of mice. Conditions: 5 mg kg^−1.
In data set [15] the test system is GSH-Px. In words: In vivo GSH-Px activity in brain of mice. Conditions: 5 mg kg^−1.
In data set [16] the test system is CAT. In words: In vivo CAT activity in brain of mice. Conditions: high-test dose.
In data set [17] the test system is HEK-293 cells. In words: Cell viability assay on normal human embryonic HEK-293 cells. It is filed as cell-based. The note with it: 1, 10, 20, 40 and 100 μM, MTT.

The structures appear in SMILES notation. Where two headings read alike, the source gives them in different places.

Chain of eeAChE (O42275 24-633): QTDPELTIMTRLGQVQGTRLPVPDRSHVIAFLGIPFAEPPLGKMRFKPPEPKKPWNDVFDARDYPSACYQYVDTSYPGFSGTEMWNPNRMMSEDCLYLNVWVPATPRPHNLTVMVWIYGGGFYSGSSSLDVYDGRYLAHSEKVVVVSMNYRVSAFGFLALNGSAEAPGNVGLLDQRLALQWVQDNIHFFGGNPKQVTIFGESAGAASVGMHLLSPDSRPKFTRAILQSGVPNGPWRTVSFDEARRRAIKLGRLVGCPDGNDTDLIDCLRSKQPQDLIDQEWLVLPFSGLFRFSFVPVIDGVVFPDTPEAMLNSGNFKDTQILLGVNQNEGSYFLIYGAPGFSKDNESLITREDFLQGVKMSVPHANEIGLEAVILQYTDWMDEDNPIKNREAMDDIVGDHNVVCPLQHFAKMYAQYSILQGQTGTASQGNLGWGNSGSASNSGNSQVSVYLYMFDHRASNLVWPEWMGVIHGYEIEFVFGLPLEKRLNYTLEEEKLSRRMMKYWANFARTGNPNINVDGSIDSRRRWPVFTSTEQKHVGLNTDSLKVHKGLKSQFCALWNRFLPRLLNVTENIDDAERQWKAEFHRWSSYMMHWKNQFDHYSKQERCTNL
T2 sequence (P81908 whole entry): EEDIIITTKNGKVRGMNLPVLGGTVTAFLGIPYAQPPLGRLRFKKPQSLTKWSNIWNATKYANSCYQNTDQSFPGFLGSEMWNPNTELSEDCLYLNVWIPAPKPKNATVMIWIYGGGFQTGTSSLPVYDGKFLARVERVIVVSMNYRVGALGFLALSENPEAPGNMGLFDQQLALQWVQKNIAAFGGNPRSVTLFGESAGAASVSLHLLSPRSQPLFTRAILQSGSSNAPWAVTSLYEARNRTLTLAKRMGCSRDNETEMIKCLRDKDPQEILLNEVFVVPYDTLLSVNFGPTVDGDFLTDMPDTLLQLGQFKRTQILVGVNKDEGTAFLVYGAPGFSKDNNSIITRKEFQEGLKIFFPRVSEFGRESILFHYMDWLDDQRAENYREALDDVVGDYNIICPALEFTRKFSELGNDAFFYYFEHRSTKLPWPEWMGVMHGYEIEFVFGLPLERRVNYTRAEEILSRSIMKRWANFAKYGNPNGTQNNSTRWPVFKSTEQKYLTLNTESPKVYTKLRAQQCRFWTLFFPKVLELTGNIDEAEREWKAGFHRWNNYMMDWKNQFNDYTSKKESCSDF
Chain of Aβ1–42 peptide (P05067 672-713): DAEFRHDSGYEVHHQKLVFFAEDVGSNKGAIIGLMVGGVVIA

Regarding `COc1cc(/C=C/C(=O)Nc2nc3ccc(O)cc3s2)ccc1OCc1ccccc1` [Compound 22, (E)-3-(4-(Benzyloxy)-3-methoxyphenyl)-N-(6-hydroxybenzo[d]thi-azol-2-yl)acrylamide], the IC50 in data set [1] (read-out: IC50 (μM) ± SEM MAO-B, mean ± SEM, n = 3) turned out to be 0.348 ± 0.041 µM; in data set [2], 37.4 ± 1.17 µM; in data set [3] it was 43.2 ± 1.34 µM; in data set [4] (read-out: IC50 (μM) ± SEM MAO-A, mean ± SEM, n = 3) it was 19.4 ± 1.1 µM; in [5] it was 16.33 ± 0.1 µM; in [6] (read-out: IC50 (μM) ± SEM eeAChE, mean ± SEM, n = 3) it was 0.172 ± 0.1 µM. Further, the “SI = IC50 of MAO-A/IC50 of MAO-B” value in data set [1] is on record as 55. Also, the “SI = IC50 of BChE/IC50 of AChE” value in data set [6] was found to be 217.
Take `O=C(Nc1nc2ccc(O)cc2s1)c1cc(O)c(O)c(O)c1` [Compound 28, 3,4,5-Trihydroxy-N-(6-hydroxybenzo[d]thiazol-2-yl)benzamide]: the IC50 in data set [1] is 0.219 ± 0.34 µM; in data set [9] it was 9.25 ± 0.506 µM; in data set [3], 2.06 ± 0.11 µM; in [12], 10.4 ± 0.13 µM; in data set [4] it was 10.1 ± 0.239 µM; in data set [13], 11.29 ± 0.08 µM. The IC50 in data set [5] was 1.77 ± 0.04 µM; in data set [6] it was 1.48 ± 0.1 µM. In addition, in [1], the “SI = IC50 of MAO-A/IC50 of MAO-B” value amounted to 46. In addition, the “FRAP value” in data set [7] was 45.24 µM. For the same molecule, the “brain's SOD level” value in data set [8] turned out to be 94.20 U mL^−1. For the same molecule, the “in vivo antioxidant activity” value in [10] is given as “good to moderate in vivo antioxidant activity”. Also, in data set [11], the “neurotoxicity / cytotoxicity on SH-SY5Y cells” value was “did not show any apparent neurotoxicity”. Moreover, in data set [13] (after a 24-hour equimolar administration, ThT fluorescence (Fig. 4)), the “inhibition of amyloid beta fibrils” value was “around 60%”. The “SI = IC50 of BChE/IC50 of AChE” value in [6] was found to be 6. The “MDA concentration in animal brains” value in data set [14] was 1.15 nmol/mL. Besides, the “brain GSH-Px activity” value in [15] was “increases the antioxidant enzymatic activity of GSH-Px”. The same molecule came in with a CAT activity in data set [16] of 97 U mL^−1. Moreover, the “cytotoxic effect on viability of HEK-293 cells” value in data set [17] is “not showed in cytotoxic effect”.
